From patent US20230398130A1, “METHODS AND COMPOSITIONS FOR DIFFERENTIATING STEM CELLS” (Massachusetts Institute of Technology, priority 2020, published 2023)

How the values were obtained:
ISC-enriched organoids [1] = experiment: Primary screen, 384-well 2.5-D organoid differentiation (ENR+CD, 6 days): carbachol-induced lysozyme secretion (LYZ.S); assay type: cell-based, murine; settings: primary screen; for Dose.FC.LYZ.S: FC vs plate median; for Dose.FC.LYZ.S (log 2 fold change): vs plate median
Source text: (§1) High-throughput screening.

ISC-enriched organoids [2] = experiment: Primary screen, 384-well 2.5-D organoid differentiation (ENR+CD, 6 days): basal lysozyme secretion (LYZ.NS); assay type: cell-based, murine; settings: for Dose.FC.LYZ.NS: FC vs plate median; for Dose.FC.LYZ.NS (log 2 fold change): vs plate median
Source text: as §1

ISC-enriched organoids [3] = experiment: Primary screen, 384-well 2.5-D organoid differentiation (ENR+CD, 6 days, Target Selective Inhibitor Library, vs whole-plate median): ATP (CellTiter-Glo 3D, CTG); settings: for Dose.FC.CTG: FC vs plate median; for Dose.FC.CTG (log 2 fold change): vs plate median
[4] = Dose 0.08 uM, primary screen, standard z score
[5] = Dose 0.40 uM, primary screen, standard z score
[6] = Dose 2.00 uM, primary screen, standard z score
[7] = Dose 10.00 uM, primary screen, standard z score
[8] = Dose 0.08 uM, standard z score of FC
[9] = Dose 0.40 uM, standard z score of FC
[10] = Dose 2.00 uM, standard z score of FC
[11] = Dose 10.00 uM, standard z score of FC

`CCOC(=O)CCNc1cc(N2CCc3ccccc3CC2)nc(-c2ccccn2)n1.Cl` [GSK J4 HCl] was tested, and the Dose.FC.LYZ.S (ISC-enriched organoids [1]; Dose 0.08 uM) was 0.086 log 2 fold change, the Dose.FC.LYZ.S (ISC-enriched organoids [1]; Dose 0.40 uM) was 0.109 log 2 fold change and the Dose.FC.LYZ.S (ISC-enriched organoids [1]; Dose 2.00 uM) was 0.041 log 2 fold change. The Dose.FC.LYZ.S (ISC-enriched organoids [1]; Dose 10.00 uM) was −0.002 log 2 fold change, the Dose.FC.LYZ.NS (ISC-enriched organoids [2]; Dose 0.08 uM, primary screen) was 0.058 log 2 fold change and the Z.LYZ.NS (ISC-enriched organoids [2]; [4]) was 0.508. The Dose.FC.LYZ.NS (ISC-enriched organoids [2]; Dose 0.40 uM, primary screen) was 0.050 log 2 fold change, the Z.LYZ.NS (ISC-enriched organoids [2]; [5]) was 0.433 and the Dose.FC.LYZ.NS (ISC-enriched organoids [2]; Dose 2.00 uM, primary screen) was 0.018 log 2 fold change. The Z.LYZ.NS (ISC-enriched organoids [2]; [6]) was 0.153, the Dose.FC.LYZ.NS (ISC-enriched organoids [2]; Dose 10.00 uM, primary screen) was −0.001 log 2 fold change and the Z.LYZ.NS (ISC-enriched organoids [2]; [7]) was −0.006. For the same compound, the Dose.FC.CTG (ISC-enriched organoids [3]; Dose 0.08 uM, primary screen) was 0.124 log 2 fold change, the Z.CTG (ISC-enriched organoids [3]; [4]) was 0.297 and the Dose.FC.CTG (ISC-enriched organoids [3]; Dose 0.40 uM, primary screen) was 0.099 log 2 fold change. For the same compound, the Z.CTG (ISC-enriched organoids [3]; [5]) was 0.237, the Dose.FC.CTG (ISC-enriched organoids [3]; Dose 2.00 uM, primary screen) was 0.002 log 2 fold change and the Z.CTG (ISC-enriched organoids [3]; [6]) was 0.006. It also gave a Dose.FC.CTG (ISC-enriched organoids [3]; Dose 10.00 uM, primary screen) of 0.233 log 2 fold change and a Z.CTG (ISC-enriched organoids [3]; [7]) of 0.558.
For `Cc1cc(NC(=O)Nc2ccc(N(C)C)cc2)c2cc(F)cc(F)c2n1` [SB408124], the “Dose.FC.LYZ.S (log 2 fold change)” value (ISC-enriched organoids [1]; Dose 0.08 uM) was 0.198, the “Dose.FC.LYZ.S (log 2 fold change)” value (ISC-enriched organoids [1]; Dose 0.40 uM) was 0.193 and the “Dose.FC.LYZ.S (log 2 fold change)” value (ISC-enriched organoids [1]; Dose 2.00 uM) was 0.082. For the same compound, the “Dose.FC.LYZ.S (log 2 fold change)” value (ISC-enriched organoids [1]; Dose 10.00 uM) was −0.148, the “Z.LYZ.NS (standard z score)” value (ISC-enriched organoids [2]; Dose 0.08 uM, primary screen) was 1.494 and the “Dose.FC.LYZ.NS (log 2 fold change)” value (ISC-enriched organoids [2]; Dose 0.08 uM, primary screen) was 0.172. For the same compound, the “Z.LYZ.NS (standard z score)” value (ISC-enriched organoids [2]; Dose 0.40 uM, primary screen) was 1.168, the “Dose.FC.LYZ.NS (log 2 fold change)” value (ISC-enriched organoids [2]; Dose 0.40 uM, primary screen) was 0.134 and the “Z.LYZ.NS (standard z score)” value (ISC-enriched organoids [2]; Dose 2.00 uM, primary screen) was 0.730. For the same compound, the “Dose.FC.LYZ.NS (log 2 fold change)” value (ISC-enriched organoids [2]; Dose 2.00 uM, primary screen) was 0.084, the “Z.LYZ.NS (standard z score)” value (ISC-enriched organoids [2]; Dose 10.00 uM, primary screen) was −0.607 and the “Dose.FC.LYZ.NS (log 2 fold change)” value (ISC-enriched organoids [2]; Dose 10.00 uM, primary screen) was −0.070. The “Z.CTG (standard z score)” value (ISC-enriched organoids [3]; Dose 0.08 uM, primary screen) was 0.978, the “Dose.FC.CTG (log 2 fold change)” value (ISC-enriched organoids [3]; Dose 0.08 uM, primary screen) was 0.410 and the “Z.CTG (standard z score)” value (ISC-enriched organoids [3]; Dose 0.40 uM, primary screen) was 0.799. For the same compound, the “Dose.FC.CTG (log 2 fold change)” value (ISC-enriched organoids [3]; Dose 0.40 uM, primary screen) was 0.334, the “Z.CTG (standard z score)” value (ISC-enriched organoids [3]; Dose 2.00 uM, primary screen) was 0.869 and the “Dose.FC.CTG (log 2 fold change)” value (ISC-enriched organoids [3]; Dose 2.00 uM, primary screen) was 0.364. The “Z.CTG (standard z score)” value (ISC-enriched organoids [3]; Dose 10.00 uM, primary screen) was 0.216 and the “Dose.FC.CTG (log 2 fold change)” value (ISC-enriched organoids [3]; Dose 10.00 uM, primary screen) was 0.091.
Work on `CC(=O)O[C@H]1C[C@@H]2CC[C@@H]3[C@H](CC[C@@]4(C)[C@H]3C[C@H]([N+]3(C)CCCCC3)[C@@H]4OC(C)=O)[C@@]2(C)C[C@@H]1[N+]1(C)CCCCC1.[Br-].[Br-]` [Pancuronium dibromide] yielded a Dose.FC.LYZ.S (ISC-enriched organoids [1]; Dose 0.08 uM) of 0.213 log 2 fold change, a Dose.FC.LYZ.S (ISC-enriched organoids [1]; Dose 0.40 uM) of 0.094 log 2 fold change and a Dose.FC.LYZ.S (ISC-enriched organoids [1]; Dose 2.00 uM) of 0.099 log 2 fold change. For the same compound, the Dose.FC.LYZ.S (ISC-enriched organoids [1]; Dose 10.00 uM) was 0.004 log 2 fold change, the Dose.FC.LYZ.NS (ISC-enriched organoids [2]; Dose 0.08 uM, primary screen) was 0.128 log 2 fold change and the Z.LYZ.NS (ISC-enriched organoids [2]; [8]) was 1.118. For the same compound, the Dose.FC.LYZ.NS (ISC-enriched organoids [2]; Dose 0.40 uM, primary screen) was 0.047 log 2 fold change, the Z.LYZ.NS (ISC-enriched organoids [2]; [9]) was 0.406 and the Dose.FC.LYZ.NS (ISC-enriched organoids [2]; Dose 2.00 uM, primary screen) was 0.093 log 2 fold change. The Z.LYZ.NS (ISC-enriched organoids [2]; [10]) was 0.806, the Dose.FC.LYZ.NS (ISC-enriched organoids [2]; Dose 10.00 uM, primary screen) was 0.035 log 2 fold change and the Z.LYZ.NS (ISC-enriched organoids [2]; [11]) was 0.302. The Dose.FC.CTG (ISC-enriched organoids [3]; Dose 0.08 uM, primary screen) was 0.217 log 2 fold change, the Z.CTG (ISC-enriched organoids [3]; [8]) was 0.519 and the Dose.FC.CTG (ISC-enriched organoids [3]; Dose 0.40 uM, primary screen) was 0.226 log 2 fold change. For the same compound, the Z.CTG (ISC-enriched organoids [3]; [9]) was 0.541, the Dose.FC.CTG (ISC-enriched organoids [3]; Dose 2.00 uM, primary screen) was −0.012 log 2 fold change and the Z.CTG (ISC-enriched organoids [3]; [10]) was −0.029. It also gave a Dose.FC.CTG (ISC-enriched organoids [3]; Dose 10.00 uM, primary screen) of 0.062 log 2 fold change and a Z.CTG (ISC-enriched organoids [3]; [11]) of 0.148.
